Measurements taken from patent US9765083B2, “Method for the synthesis of irinotecan” (Synbias Pharma AG, priority 2013, dated 2017).

Test: solubility of 7-des-ethyl-irinotecan compared with camptothecin and 10-hydroxycamptothecin
Type: physicochemical
Conditions: as compared to camptothecin and 10-hydroxycamptothecin; solvent not stated

CC[C@@]1(O)C(=O)OCc2c1cc1n(c2=O)Cc2cc3cc(OC(=O)N4CCC(N5CCCCC5)CC4)ccc3nc2-1 [7-des-ethyl-irinotecan, 10-[4-(1-piperidino)-1-piperidino]carbonyloxycamptothecin]
solubility: significantly better solubility
